Results reported in the NIST ThermoML archive (doi:10.1016/j.jct.2017.07.004).

Assay: xn = mol fraction of the nth substance listed
Conditions: 100 kPa, Liquid; for viscosity: Concentric cylinders viscometry; for mass density: Vibrating tube method

CCC=O [propanal] + CC(C)O
Conditions	mass density [kg/m3]	viscosity [mPa·s]
293.15 K, x1 = 0.0812	792	2.37
293.15 K, x1 = 0.16	797.2	2.3
293.15 K, x1 = 0.24	801.6	2.2
293.15 K, x1 = 0.3499	806.4	2
293.15 K, x1 = 0.4402	809.2	1.81
293.15 K, x1 = 0.5619	811.4	1.52
293.15 K, x1 = 0.6483	811.8	1.3
293.15 K, x1 = 0.74	811.3	1.06
293.15 K, x1 = 0.85	809.1	0.76
293.15 K, x1 = 0.94	806	0.51
293.15 K, x1 = 1	802.4	0.34
298.15 K, x1 = 0.0812	786.6	2.04
298.15 K, x1 = 0.16	791.5	1.97
298.15 K, x1 = 0.24	795.9	1.88
298.15 K, x1 = 0.3499	800.4	1.72
298.15 K, x1 = 0.4402	803	1.56
298.15 K, x1 = 0.5619	804.9	1.32
298.15 K, x1 = 0.6483	805	1.13
298.15 K, x1 = 0.74	804.1	0.93
298.15 K, x1 = 0.85	802.3	0.67
298.15 K, x1 = 0.94	799.1	0.46
298.15 K, x1 = 1	796.2	0.33
303.15 K, x1 = 0.0812	781.5	1.76
303.15 K, x1 = 0.16	786.2	1.69
303.15 K, x1 = 0.24	790	1.61
303.15 K, x1 = 0.3499	794.5	1.47
303.15 K, x1 = 0.4402	797.1	1.33
303.15 K, x1 = 0.5619	798.8	1.13
303.15 K, x1 = 0.6483	798.8	0.97
303.15 K, x1 = 0.74	797.8	0.8
303.15 K, x1 = 0.85	795.8	0.59
303.15 K, x1 = 0.94	792.6	0.42
303.15 K, x1 = 1	790.3	0.31
308.15 K, x1 = 0.0812	776.7	1.52
308.15 K, x1 = 0.16	780.9	1.46
308.15 K, x1 = 0.24	784.3	1.38
308.15 K, x1 = 0.3499	788.2	1.26
308.15 K, x1 = 0.4402	790.5	1.14
308.15 K, x1 = 0.5619	792	0.97
308.15 K, x1 = 0.6483	792	0.83
308.15 K, x1 = 0.74	791.4	0.69
308.15 K, x1 = 0.85	789.5	0.52
308.15 K, x1 = 0.94	786.4	0.39
308.15 K, x1 = 1	784.5	0.3
313.15 K, x1 = 0.0812	771.8	1.31
313.15 K, x1 = 0.16	775.5	1.24
313.15 K, x1 = 0.24	778.8	1.17
313.15 K, x1 = 0.3499	782.4	1.06
313.15 K, x1 = 0.4402	784.3	0.96
313.15 K, x1 = 0.5619	785.7	0.83
313.15 K, x1 = 0.6483	785.8	0.72
313.15 K, x1 = 0.74	785.3	0.61
313.15 K, x1 = 0.85	783.3	0.47
313.15 K, x1 = 0.94	780.8	0.36
313.15 K, x1 = 1	779	0.28
318.15 K, x1 = 0.0812	766.8	1.14
318.15 K, x1 = 0.16	770.2	1.08
318.15 K, x1 = 0.24	773.1	1.01
318.15 K, x1 = 0.3499	776.5	0.91
318.15 K, x1 = 0.4402	778.4	0.83
318.15 K, x1 = 0.5619	779.7	0.71
318.15 K, x1 = 0.6483	779.7	0.63
318.15 K, x1 = 0.74	778.9	0.53
318.15 K, x1 = 0.85	777.2	0.42
318.15 K, x1 = 0.94	775.4	0.33
318.15 K, x1 = 1	773.5	0.27
323.15 K, x1 = 0.0812	761.6	0.99
323.15 K, x1 = 0.16	764.6	0.94
323.15 K, x1 = 0.24	767.1	0.87
323.15 K, x1 = 0.3499	770	0.79
323.15 K, x1 = 0.4402	771.7	0.72
323.15 K, x1 = 0.5619	772.8	0.62
323.15 K, x1 = 0.6483	772.8	0.55
323.15 K, x1 = 0.74	772.4	0.47
323.15 K, x1 = 0.85	770.9	0.38
323.15 K, x1 = 0.94	769.4	0.3
323.15 K, x1 = 1	768.2	0.25

CCC=O [propanal] + CCC(C)O
Conditions	mass density [kg/m3]	viscosity [mPa·s]
293.15 K, x1 = 0.0811	810.5	3.49
293.15 K, x1 = 0.16	813.1	3.29
293.15 K, x1 = 0.24	815.1	3.06
293.15 K, x1 = 0.35	817	2.72
293.15 K, x1 = 0.44	817.8	2.42
293.15 K, x1 = 0.56	817.7	2
293.15 K, x1 = 0.6499	816.7	1.67
293.15 K, x1 = 0.7401	814.7	1.34
293.15 K, x1 = 0.8501	810.8	0.92
293.15 K, x1 = 0.9401	806.5	0.58
293.15 K, x1 = 1	802.4	0.34
298.15 K, x1 = 0.0811	806	2.89
298.15 K, x1 = 0.16	808.4	2.73
298.15 K, x1 = 0.24	810.3	2.55
298.15 K, x1 = 0.35	811.8	2.27
298.15 K, x1 = 0.44	812.3	2.03
298.15 K, x1 = 0.56	811.8	1.68
298.15 K, x1 = 0.6499	810.5	1.41
298.15 K, x1 = 0.7401	808.4	1.14
298.15 K, x1 = 0.8501	804.5	0.8
298.15 K, x1 = 0.9401	800	0.52
298.15 K, x1 = 1	796.2	0.33
303.15 K, x1 = 0.0811	801.1	2.41
303.15 K, x1 = 0.16	803.2	2.27
303.15 K, x1 = 0.24	804.8	2.12
303.15 K, x1 = 0.35	806	1.89
303.15 K, x1 = 0.44	806.5	1.69
303.15 K, x1 = 0.56	805.7	1.41
303.15 K, x1 = 0.6499	804.3	1.19
303.15 K, x1 = 0.7401	802	0.97
303.15 K, x1 = 0.8501	798	0.69
303.15 K, x1 = 0.9401	794	0.46
303.15 K, x1 = 1	790.3	0.31
308.15 K, x1 = 0.0811	796.4	2.02
308.15 K, x1 = 0.16	798	1.9
308.15 K, x1 = 0.24	799.4	1.77
308.15 K, x1 = 0.35	800.3	1.58
308.15 K, x1 = 0.44	800.4	1.41
308.15 K, x1 = 0.56	799.5	1.18
308.15 K, x1 = 0.6499	798.1	1.01
308.15 K, x1 = 0.7401	795.9	0.82
308.15 K, x1 = 0.8501	791.8	0.6
308.15 K, x1 = 0.9401	788	0.42
308.15 K, x1 = 1	784.5	0.3
313.15 K, x1 = 0.0811	791.7	1.71
313.15 K, x1 = 0.16	793	1.61
313.15 K, x1 = 0.24	794	1.5
313.15 K, x1 = 0.35	794.6	1.34
313.15 K, x1 = 0.44	794.6	1.2
313.15 K, x1 = 0.56	793.5	1.01
313.15 K, x1 = 0.6499	792	0.86
313.15 K, x1 = 0.7401	789.8	0.72
313.15 K, x1 = 0.8501	786	0.53
313.15 K, x1 = 0.9401	782.4	0.38
313.15 K, x1 = 1	779	0.28
318.15 K, x1 = 0.0811	786.8	1.45
318.15 K, x1 = 0.16	787.9	1.36
318.15 K, x1 = 0.24	788.6	1.27
318.15 K, x1 = 0.35	789.1	1.13
318.15 K, x1 = 0.44	788.8	1.02
318.15 K, x1 = 0.56	787.6	0.86
318.15 K, x1 = 0.6499	786.1	0.74
318.15 K, x1 = 0.7401	783.8	0.62
318.15 K, x1 = 0.8501	780	0.47
318.15 K, x1 = 0.9401	776.5	0.35
318.15 K, x1 = 1	773.5	0.27
323.15 K, x1 = 0.0811	781.9	1.25
323.15 K, x1 = 0.16	782.6	1.17
323.15 K, x1 = 0.24	783.1	1.09
323.15 K, x1 = 0.35	783.2	0.97
323.15 K, x1 = 0.44	782.8	0.87
323.15 K, x1 = 0.56	781.5	0.74
323.15 K, x1 = 0.6499	779.8	0.64
323.15 K, x1 = 0.7401	777.7	0.54
323.15 K, x1 = 0.8501	774.3	0.42
323.15 K, x1 = 0.9401	770.9	0.32
323.15 K, x1 = 1	768.2	0.25
